Type in all cases: in vivo
Experiment [1] in a line: Experiment 6 sensory evaluation of cyclic dipeptides, “top sharp saltiness”. The gist of the method:
(§1)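 Reduced-sodium curry roux (44 g in 300 g hot water) was spiked with cyclic dipeptide solutions matching heat-treated coriander or paprika levels, at 0.5% or 1.0% (w/w) final. Three evaluators scored each sample against unspiked reduced-sodium and common roux. Mean scores were graded F to AA.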

Experiment [2] in a line: Experiment 6 sensory evaluation of cyclic dipeptides, “middle fullness (enhanced thickness)”. A digest of the protocol:
as §1

The nature of experiment [3]: Experiment 6 sensory evaluation of cyclic dipeptides, “boosting of last flavor (aftertaste)”. A digest of the protocol: as §1
Where [4] appears, read: Additive amount coriander 0.5% (heat-treated coriander equivalent aqueous solution, final 0.5% (w/w)), reduced-sodium curry roux.
The mark [5] stands for this setting: Additive amount coriander 0.5%, reduced-sodium curry roux.
Setting [6] is: heat-treated coriander equivalent aqueous solution of cyclic dipeptide, final 1.0% (w/w) in reduced-sodium curry roux dispersion.
[7] abbreviates: heat-treated coriander equivalent aqueous solution of cyclic dipeptide, final 1.0% (w/w) in reduced-sodium curry roux dispersion, 3 evaluators.
Where [8] appears, read: Additive amount paprika 0.5% (heat-treated paprika equivalent aqueous solution, final 0.5% (w/w)), reduced-sodium curry roux.
[9] abbreviates: Additive amount paprika 0.5%, reduced-sodium curry roux.
The mark [10] stands for this setting: heat-treated paprika equivalent aqueous solution of cyclic dipeptide, final 1.0% (w/w) in reduced-sodium curry roux dispersion.
[11] abbreviates: heat-treated paprika equivalent aqueous solution of cyclic dipeptide, final 1.0% (w/w) in reduced-sodium curry roux dispersion, 3 evaluators.

cyclic (Ala-Arg) [Coriander ID 11]: the results for the “Top sharp saltiness Average” value in experiment [1] (setting [4]) and in experiment [1] (setting [7]) were 2.0 points and 2.2 points, respectively. Besides, the “Top sharp saltiness Evaluation” value in experiment [1] (setting [5]) was “B (“B” when it was 2.0 or higher and 2.5 or lower)”; in experiment [1] (setting [6]) it was “B (“B” when it was 2.0 or higher and 2.5 or lower)”. Further, the “Middle fullness Average” value was 1.8 points in experiment [2] (setting [5]) and 2.7 points in experiment [2] (setting [7]). The “Middle fullness Evaluation” value in experiment [2] (setting [5]) was “C (“C” when it was 1.1 or higher and 1.9 or lower)”; in experiment [2] (setting [6]), “B (“B” when it was 2.0 or higher and 2.5 or lower)”. The “Bosting of last flavor Average” value is 1.8 points in experiment [3] (setting [5]) and 2.7 points in experiment [3] (setting [7]). Moreover, the “Bosting of last flavor Evaluation” value is “B (“B” when it was 2.0 or higher and 2.5 or lower)” in experiment [3] (setting [5]); “A (“A” when it was 2.6 or higher and 2.9 or lower)” in experiment [3] (setting [6]).
For the substance cyclic (Val-Phe) [Coriander ID 38], the “Top sharp saltiness Average” value in experiment [1] (setting [8]) and in experiment [1] (setting [11]) was 2.8 points throughout. In addition, the “Top sharp saltiness Evaluation” value in experiment [1] (setting [9]) was “A (“A” when it was 2.6 or higher and 2.9 or lower)”; in experiment [1] (setting [10]), “A (“A” when it was 2.6 or higher and 2.9 or lower)”. The results for the “Middle fullness Average” value in experiment [2] (setting [9]) and in experiment [2] (setting [11]) were 3.2 points and 2.8 points, respectively. Besides, the “Middle fullness Evaluation” value in experiment [2] (setting [9]) was “AA (“AA” when it was 3.0 or higher)”; in experiment [2] (setting [10]), “A (“A” when it was 2.6 or higher and 2.9 or lower)”. In addition, the “Bosting of last flavor Average” value is 3.3 points in experiment [3] (setting [9]) and 3.2 points in experiment [3] (setting [11]). In addition, the “Bosting of last flavor Evaluation” value in experiment [3] (setting [9]) and in experiment [3] (setting [10]) was “AA (“AA” when it was 3.0 or higher)” throughout.
Take cyclic (Glu-Asp) [Coriander ID 12]: the figures for the “Top sharp saltiness Average” value in experiment [1] (setting [8]) and in experiment [1] (setting [11]) were 1.8 points and 1.5 points, respectively. Also, the “Top sharp saltiness Evaluation” value in experiment [1] (setting [9]) was “C (“C” when it was 1.1 or higher and 1.9 or lower)”; in experiment [1] (setting [10]), “C (“C” when it was 1.1 or higher and 1.9 or lower)”. Also, the “Middle fullness Average” value in experiment [2] (setting [9]) was found to be 2.7 points; in experiment [2] (setting [11]) it was 2.0 points. In addition, the “Middle fullness Evaluation” value in experiment [2] (setting [9]) is “A (“A” when it was 2.6 or higher and 2.9 or lower)”; in experiment [2] (setting [10]) it was “B (“B” when it was 2.0 or higher and 2.5 or lower)”. The “Bosting of last flavor Average” value in experiment [3] (setting [9]) is reported as 2.3 points; in experiment [3] (setting [11]), 2.0 points. The “Bosting of last flavor Evaluation” value in experiment [3] (setting [9]) is “B (“B” when it was 2.0 or higher and 2.5 or lower)”; in experiment [3] (setting [10]), “B (“B” when it was 2.0 or higher and 2.5 or lower)”.
For the substance cyclic (Ala-His) [Coriander ID 10], the “Top sharp saltiness Average” value amounted to 2.7 points in experiment [1] (setting [4]) and 2.3 points in experiment [1] (setting [7]). Moreover, the “Top sharp saltiness Evaluation” value in experiment [1] (setting [5]) was “A (“A” when it was 2.6 or higher and 2.9 or lower)”; in experiment [1] (setting [6]) it was “B (“B” when it was 2.0 or higher and 2.5 or lower)”. In addition, the “Middle fullness Average” value in experiment [2] (setting [5]) came to 3.2 points; in experiment [2] (setting [7]), 3.3 points. The “Middle fullness Evaluation” value in experiment [2] (setting [5]) and in experiment [2] (setting [6]) was “AA (“AA” when it was 3.0 or higher)” throughout. The “Bosting of last flavor Average” value in experiment [3] (setting [5]) is on record as 3.3 points; in experiment [3] (setting [7]) it was 3.7 points. In addition, the “Bosting of last flavor Evaluation” value in experiment [3] (setting [5]) and in experiment [3] (setting [6]) was “AA (“AA” when it was 3.0 or higher)” throughout.
On to cyclic (Val-Tyr) [Coriander ID 35], for which the results for the “Top sharp saltiness Average” value in experiment [1] (setting [8]) and in experiment [1] (setting [11]) were 1.8 points and 2.3 points, respectively. Also, the “Top sharp saltiness Evaluation” value in experiment [1] (setting [9]) was “C (“C” when it was 1.1 or higher and 1.9 or lower)”; in experiment [1] (setting [10]), “B (“B” when it was 2.0 or higher and 2.5 or lower)”. Moreover, the “Middle fullness Average” value in experiment [2] (setting [9]) and in experiment [2] (setting [11]) was 2.2 points each time. Further, the “Middle fullness Evaluation” value in experiment [2] (setting [9]) is “B (“B” when it was 2.0 or higher and 2.5 or lower)”; in experiment [2] (setting [10]) it was “B (“B” when it was 2.0 or higher and 2.5 or lower)”. Also, the “Bosting of last flavor Average” value in experiment [3] (setting [9]) is 1.8 points; in experiment [3] (setting [11]), 2.3 points. Besides, the “Bosting of last flavor Evaluation” value in experiment [3] (setting [9]) was “C (“C” when it was 1.1 or higher and 1.9 or lower)”; in experiment [3] (setting [10]), “B (“B” when it was 2.0 or higher and 2.5 or lower)”.
cyclic (Glu-Gly) [Coriander ID 9]: the “Top sharp saltiness Average” value in experiment [1] (setting [4]) is on record as 2.2 points; in experiment [1] (setting [7]) it was 2.0 points. Moreover, the “Top sharp saltiness Evaluation” value in experiment [1] (setting [5]) is “B (“B” when it was 2.0 or higher and 2.5 or lower)”; in experiment [1] (setting [6]), “B (“B” when it was 2.0 or higher and 2.5 or lower)”. Moreover, the “Middle fullness Average” value came out at 2.8 points in experiment [2] (setting [5]) and 3.0 points in experiment [2] (setting [7]). Moreover, the “Middle fullness Evaluation” value is “A (“A” when it was 2.6 or higher and 2.9 or lower)” in experiment [2] (setting [5]); “AA (“AA” when it was 3.0 or higher)” in experiment [2] (setting [6]). Moreover, the “Bosting of last flavor Average” value in experiment [3] (setting [5]) is 2.8 points; in experiment [3] (setting [7]), 2.5 points. Moreover, the “Bosting of last flavor Evaluation” value is “A (“A” when it was 2.6 or higher and 2.9 or lower)” in experiment [3] (setting [5]); “B (“B” when it was 2.0 or higher and 2.5 or lower)” in experiment [3] (setting [6]).
On to cyclic (Thr-Leu/Ile) [Coriander ID 3], for which the results for the “Top sharp saltiness Average” value in experiment [1] (setting [8]) and in experiment [1] (setting [11]) were 2.0 points and 1.7 points, respectively. The “Top sharp saltiness Evaluation” value in experiment [1] (setting [9]) is “B (“B” when it was 2.0 or higher and 2.5 or lower)”; in experiment [1] (setting [10]), “C (“C” when it was 1.1 or higher and 1.9 or lower)”. The “Middle fullness Average” value came to 2.5 points in experiment [2] (setting [9]) and 2.2 points in experiment [2] (setting [11]). The “Middle fullness Evaluation” value in experiment [2] (setting [9]) is “B (“B” when it was 2.0 or higher and 2.5 or lower)”; in experiment [2] (setting [10]) it was “B (“B” when it was 2.0 or higher and 2.5 or lower)”. Further, the “Bosting of last flavor Average” value in experiment [3] (setting [9]) stood at 3.0 points; in experiment [3] (setting [11]), 1.7 points. Moreover, the “Bosting of last flavor Evaluation” value was “AA (“AA” when it was 3.0 or higher)” in experiment [3] (setting [9]); “C (“C” when it was 1.1 or higher and 1.9 or lower)” in experiment [3] (setting [10]).
As for cyclic (Glu-Tyr) [Coriander ID 19], the results for the “Top sharp saltiness Average” value in experiment [1] (setting [8]) and in experiment [1] (setting [11]) were 2.3 points and 2.8 points, respectively. Moreover, the “Top sharp saltiness Evaluation” value in experiment [1] (setting [9]) is “B (“B” when it was 2.0 or higher and 2.5 or lower)”; in experiment [1] (setting [10]), “A (“A” when it was 2.6 or higher and 2.9 or lower)”. Further, the results for the “Middle fullness Average” value in experiment [2] (setting [9]) and in experiment [2] (setting [11]) were 2.7 points and 3.0 points, respectively. Also, the “Middle fullness Evaluation” value in experiment [2] (setting [9]) is “A (“A” when it was 2.6 or higher and 2.9 or lower)”; in experiment [2] (setting [10]) it was “AA (“AA” when it was 3.0 or higher)”. The “Bosting of last flavor Average” value in experiment [3] (setting [9]) was found to be 2.5 points; in experiment [3] (setting [11]), 2.8 points. Besides, the “Bosting of last flavor Evaluation” value in experiment [3] (setting [9]) was “B (“B” when it was 2.0 or higher and 2.5 or lower)”; in experiment [3] (setting [10]), “A (“A” when it was 2.6 or higher and 2.9 or lower)”.
As for cyclic (Gly-Tyr) [Coriander ID 44], the “Top sharp saltiness Average” value in experiment [1] (setting [4]) was found to be 1.7 points; in experiment [1] (setting [7]), 2.2 points. The “Top sharp saltiness Evaluation” value in experiment [1] (setting [5]) was “C (“C” when it was 1.1 or higher and 1.9 or lower)”; in experiment [1] (setting [6]) it was “B (“B” when it was 2.0 or higher and 2.5 or lower)”. Besides, the “Middle fullness Average” value was 2.0 points in experiment [2] (setting [5]) and 2.2 points in experiment [2] (setting [7]). Also, the “Middle fullness Evaluation” value is “B (“B” when it was 2.0 or higher and 2.5 or lower)” in experiment [2] (setting [5]); “B (“B” when it was 2.0 or higher and 2.5 or lower)” in experiment [2] (setting [6]). Besides, the “Bosting of last flavor Average” value in experiment [3] (setting [5]) came out at 2.3 points; in experiment [3] (setting [7]), 2.8 points. Also, the “Bosting of last flavor Evaluation” value in experiment [3] (setting [5]) was “B (“B” when it was 2.0 or higher and 2.5 or lower)”; in experiment [3] (setting [6]) it was “A (“A” when it was 2.6 or higher and 2.9 or lower)”.
